Data from PubChem BioAssay (NCI).
Several values for one entry are separate records, joined by “and”; a condition that tells them apart may be missing. Identical values can stand only once.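 Five compound concentrations were applied to cells in 96-well plates for 48 hours; endpoints were derived by simple linear interpolation of the resulting dose-response curve. GI50 marks 50% less growth. At the TGI there is no net growth.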

How the values were obtained:
Assay in all cases: DTP human tumour cell line panel, 48 h
HOP-92 NSCLC = tested on: HOP-92 NSCLC
MDA-MB-231 breast = tested on: MDA-MB-231 breast
NCI-H226 lung = tested on: NCI-H226 lung
CCRF-CEM leukemia = tested on: CCRF-CEM leukemia
HCC-2998 colon = tested on: HCC-2998 colon
SF-268 CNS = tested on: SF-268 CNS
A498 renal = tested on: A498 renal
SR leukemia = tested on: SR leukemia

Compound	TGI (HOP-92 NSCLC)	TGI (MDA-MB-231 breast)	TGI (NCI-H226 lung) [µM]	TGI (CCRF-CEM leukemia)	TGI (HCC-2998 colon)	TGI (SF-268 CNS)	TGI (A498 renal)	TGI (SR leukemia)	GI50 (HOP-92 NSCLC)	GI50 (SR leukemia)	GI50 (MDA-MB-231 breast)	GI50 (NCI-H226 lung) [µM]	GI50 (CCRF-CEM leukemia)	GI50 (HCC-2998 colon)	GI50 (SF-268 CNS)	GI50 (A498 renal)
COc1cc(OC)c(OC)cc1/C=C/c1ccccn1	> 10 µM	> 10 µM	> 10	> 10 µM	> 10 µM	> 10 µM	> 10 µM									
CCN(CC)P(=O)(c1ccc2c(c1)OCCOCCOCCOCCO2)N(CC)CC		> 100 µM	> 100	> 100 µM	> 100 µM	> 100 µM	> 100 µM	> 100 µM								
CCCN1CCC(Oc2cc(Nc3nc(Nc4cccc(F)c4C(N)=O)c4cc[nH]c4n3)c(OC)cc2Cl)CC1	3.42 µM	5.52 µM	10.7	10.1 µM	3.84 µM	8.32 µM	6.47 µM	6.52 µM	0.309 µM	1.02 µM	2.16 µM	3.64	3.45 µM	0.994 µM	3.79 µM	2.95 µM
COCCn1c(Nc2ccc(C(=O)NO)cc2)nc2ccccc21		44.7 µM	36.9	> 100 µM	12.6 µM	17.5 µM	9.17 µM	> 100 µM		1.69 µM	4.65 µM	13.7	3.52 µM	3.32 µM	4.9 µM	2.64 µM
CC(=O)Oc1ccc2c(c1)O/C(=C\c1ccc(N(C)C)cc1)C2=O		> 100 µM	> 100	> 100 µM	> 100 µM	> 100 µM		> 100 µM								
CCCCCCCCCCCC(c1ccccc1)[N+](C)(C)C (stereo not given)	2.86 µM	4.25 µM	7.22	4.12 µM		2.61 µM	7.24 µM		1.06 µM		1.68 µM	1.97	1.41 µM		1.26 µM	1.99 µM
CC(C)CC(NC(=O)C(O)C(N)Cc1ccccc1)C(=O)O (stereo not given)	> 100 µM	> 100 µM	> 100	> 100 µM	> 100 µM	> 100 µM		> 100 µM								
CC(C)(Sc1cc(C(C)(C)C)c(O)c(C(C)(C)C)c1)Sc1cc(C(C)(C)C)c(O)c(C(C)(C)C)c1		> 100 µM		> 100 µM		> 100 µM	> 100 µM									
Cc1cc(NC(=O)NCCCOc2ccc(N3C(N)=NC(N)=NC3(C)C)cc2Cl)ccc1S(=O)(=O)F	45.6 µM	> 100 µM	> 100	> 63.5 µM	> 69.2 µM	> 58.9 µM	99.9 µM	> 46.2 µM	2.85 µM	0.369 µM	7.16 µM	12.6	0.561 µM	2.06 µM	0.569 µM	7.94 µM
COc1cccc(C2CC(C)(O)Oc3cc4c(cc32)OCO4)c1 (stereo not given)	93.3 µM	96.2 µM	53	> 100 µM	> 100 µM	> 100 µM		23.8 µM								
Clc1ccc(NCNC2Nc3ccccc3N2)cc1Cl	> 100 µM	> 100 µM	> 100	> 100 µM	> 100 µM	> 100 µM	> 100 µM	> 100 µM								
CC[C@@H]1C(=O)N(C)c2cnc(Nc3ccc(C(=O)NC4CCC(N5CCN(CC6CC6)CC5)CC4)cc3OC)nc2N1C(C)C (stereo not given in full)	> 2.9 µM and 5.99 µM	> 4.6 µM and 7.06 µM	> 10	> 7.37 µM and 4.22 µM	> 4.12 µM and 2.83 µM	> 10 µM and 7.8 µM	0.236 µM and 0.252 µM	1.32 µM and 1.51 µM	0.0441 µM and 0.0596 µM	0.0134 µM and 0.0123 µM	0.0186 µM and 0.0304 µM		0.00974 µM and < 0.01 µM	0.0289 µM and 0.0374 µM	0.0586 µM and 0.0485 µM	0.0284 µM and 0.0338 µM
CCOC(=O)c1sc2nc(=S)[nH]c(NC(N)=S)c2c1C	37.5 µM	31.9 µM	21.1	73.9 µM		42.7 µM	62 µM	64.7 µM	4.58 µM	20.9 µM	12.1 µM		7.22 µM		17.8 µM	27.8 µM
O=C(O)c1c2c(c(O)c3c1CN(C1CCCCC1)CO3)OCN(C1CCCCC1)C2	> 100 µM	> 100 µM		55.7 µM	84.1 µM	> 100 µM	> 100 µM	73 µM								
COc1ccc(CC(C)NCC(O)c2ccc(O)c(NC=O)c2)cc1 (stereo not given)		> 100 µM	> 100	> 100 µM		> 100 µM	> 100 µM	> 100 µM								
